The target in the experiment is T1, GlyT1 (Homo sapiens, UniProt P48067).
T1 construct: expressed in transfected cells
T1 sequence (P48067 1-706): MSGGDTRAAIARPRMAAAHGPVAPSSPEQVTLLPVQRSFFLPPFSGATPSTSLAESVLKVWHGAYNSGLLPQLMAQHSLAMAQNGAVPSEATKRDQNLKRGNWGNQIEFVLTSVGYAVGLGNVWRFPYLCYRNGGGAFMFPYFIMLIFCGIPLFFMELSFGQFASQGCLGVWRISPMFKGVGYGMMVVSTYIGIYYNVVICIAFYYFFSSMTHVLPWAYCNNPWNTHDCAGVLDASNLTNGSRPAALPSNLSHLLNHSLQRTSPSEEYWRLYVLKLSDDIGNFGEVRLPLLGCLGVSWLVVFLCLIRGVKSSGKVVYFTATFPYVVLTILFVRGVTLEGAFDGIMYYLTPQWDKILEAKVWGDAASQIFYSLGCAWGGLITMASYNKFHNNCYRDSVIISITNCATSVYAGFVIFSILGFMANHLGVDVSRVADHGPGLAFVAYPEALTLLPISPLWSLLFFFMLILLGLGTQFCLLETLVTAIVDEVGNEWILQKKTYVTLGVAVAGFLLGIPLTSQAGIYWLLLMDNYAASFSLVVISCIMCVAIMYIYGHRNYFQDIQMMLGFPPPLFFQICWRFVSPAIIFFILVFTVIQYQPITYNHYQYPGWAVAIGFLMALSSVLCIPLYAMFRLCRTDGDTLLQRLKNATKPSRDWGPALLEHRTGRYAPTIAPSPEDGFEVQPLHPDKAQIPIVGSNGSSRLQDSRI
Kind of experiment: Glycine Transporter 1 (GlyT1) uptake assay, scintillation proximity assay of [14C]-glycine uptake. Particulars: SPA, four parameter logistic fit, read-out: GlyT1 (pIC50) (converted). In kind it is cell-based. The method in brief: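 [14C]-glycine uptake read by scintillation proximity on a plate counter. IC50 from four-parameter logistic fit of dose-response data.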

Here are results for 1 compound from patent US9708334B2, “Substituted 2,4,5,6-tetrahydropyrrolo[3,4-c]pyrazole and 4,5,6,7-tetrahydro-2H-pyrazolo[4,3-c]pyridine compounds as GlyT1 inhibitors” (DART NEUROSCIENCE (CAYMAN) LTD., priority 2014, dated 2017).

Turning to `CC(Oc1ccc(C#N)cc1C(=O)N1Cc2cn(-c3ccc(F)cc3)nc2C1)C(F)F` (stereo not shown) [Example 9, 4-((1,1-Difluoropropan-2-yl)oxy)-3-(2-(4-fluorophenyl)-2,4,5,6-tetrahydropyrrolo[3,4-c]pyrazole-5-carbonyl)benzonitrile], the IC50 was below 100 nM.
